The record followed here is publication PMC7006542, “Characterization of a Plastoglobule-Localized SOUL4 Heme-Binding Protein in Arabidopsis thaliana” (Frontiers in Plant Science, 2020).

The target of this experiment is T1, recombinant maize (Zea mays) CK2 a-subunit (Biaffin) (Zea mays, UniProt P28523).
T1 construct: gene ACK2; commercial recombinant catalytic alpha subunit (Biaffin)
The experiment can be described thus: in vitro kinase assay, SDS-PAGE and phosphorimager. The class given is biochemical. Conditions: protein substrate recombinant AtSOUL4 (3 µg); 25 mM Tris-HCl pH 8.0, 5 mM MgCl2, 1 mM DTT, 25 °C, 30 min; labelled compound; mere turnover.

T1 sequence (P28523 whole entry): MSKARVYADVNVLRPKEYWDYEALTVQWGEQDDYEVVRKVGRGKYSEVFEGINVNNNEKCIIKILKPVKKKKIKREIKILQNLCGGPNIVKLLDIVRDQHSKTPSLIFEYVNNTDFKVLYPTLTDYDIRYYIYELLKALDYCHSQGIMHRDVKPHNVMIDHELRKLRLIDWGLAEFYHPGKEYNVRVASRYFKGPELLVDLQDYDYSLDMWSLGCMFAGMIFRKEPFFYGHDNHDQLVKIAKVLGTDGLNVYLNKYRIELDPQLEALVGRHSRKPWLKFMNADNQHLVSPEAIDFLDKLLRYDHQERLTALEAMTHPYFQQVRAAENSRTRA

For the compound `Nc1ncnc2c1ncn2[C@@H]1O[C@H](COP(=O)(O)OP(=O)(O)OP(=O)(O)O)[C@@H](O)[C@H]1O` [ATP], the “in vitro kinase assay, SDS-PAGE and phosphorimager” value was “revealing phosphorylation of SOUL4 both by recombinant maize CKII and stromal fraction”.
